Source: article doi:10.1101/2024.03.08.584095v1, “LPOR and the membranes – evolutionary pathway towards prolamellar body formation” (biorxiv, 2024)

Legend:
SynPOR = molecular target: T1, SynPOR (Synechocystis sp. PCC 6803, UniProt Q59987); assay: […] K fluorescence emission shift of Pchlide; type: binding; conditions: 5 µM Pchlide, 15 µM enzyme, 200 µM dinucleotide, no lipids, pH 7.1
T1 construct: gene por; recombinant, E. coli BL21(DE3)pRIL, cloned in a previous study; tag not described here

AtPORB = molecular target: T2, AtPORB (Arabidopsis thaliana, UniProt P21218); assay: […] K fluorescence emission shift of Pchlide; type: binding; conditions: 5 µM Pchlide, 15 µM enzyme, 200 µM NADP+, 100 µM OPT lipids, pH 7.1; inactive complex
T2 construct: gene PORB; cloned in a previous study
T2 sequence (P21218 67-401): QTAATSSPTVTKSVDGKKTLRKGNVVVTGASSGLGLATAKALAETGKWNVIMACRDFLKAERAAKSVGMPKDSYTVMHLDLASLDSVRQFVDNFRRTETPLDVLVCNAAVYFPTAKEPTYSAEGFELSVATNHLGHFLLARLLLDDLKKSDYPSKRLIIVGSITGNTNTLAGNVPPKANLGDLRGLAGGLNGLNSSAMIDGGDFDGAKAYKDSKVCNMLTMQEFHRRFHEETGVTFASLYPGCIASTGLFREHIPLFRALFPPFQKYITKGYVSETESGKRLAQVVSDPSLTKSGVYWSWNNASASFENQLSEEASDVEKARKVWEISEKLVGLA

AtPORB_α10 = test system: T3, AtPORB_α10; assay: […] K fluorescence, Chlide/Pchlide ratio after […] s illumination, modified Michaelis-Menten fit; type: biochemical, Arabidopsis thaliana; conditions: 5 µM Pchlide, 15 µM enzyme, no lipids, pH 7.1, room temperature; apparent analogue of Km
T3 construct: gene PORB; AtPORB with helix alpha10 of SynPOR; pET15b, E. coli

T1 sequence (Q59987 whole entry): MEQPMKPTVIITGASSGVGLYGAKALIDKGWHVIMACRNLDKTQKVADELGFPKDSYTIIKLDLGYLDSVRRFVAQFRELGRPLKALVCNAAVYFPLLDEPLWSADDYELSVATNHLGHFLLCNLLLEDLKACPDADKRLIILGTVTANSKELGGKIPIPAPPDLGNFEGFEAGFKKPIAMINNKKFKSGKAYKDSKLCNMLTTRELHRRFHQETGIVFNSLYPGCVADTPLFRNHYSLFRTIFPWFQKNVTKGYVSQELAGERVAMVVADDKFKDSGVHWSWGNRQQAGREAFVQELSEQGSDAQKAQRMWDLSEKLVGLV

Compound | 77 K fluorescence emission shift of Pchlide (SynPOR) | 77 K fluorescence emission shift of Pchlide (AtPORB) | Km (AtPORB_α10)
NC(=O)c1ccc[n+]([C@@H]2O[C@H](COP(=O)(O)OP(=O)(O)OC[C@H]3O[C@@H](n4cnc5c(N)ncnc54)[C@H](OP(=O)(O)O)[C@@H]3O)[C@@H](O)[C@H]2O)c1 [NADP+] | Introduction of NADP^+ into the lipid-free mixture induced further red shift | AtPORB:Pchlide can bind NADP^+ in the presence of OPT lipids | –
NC(=O)C1=CN([C@@H]2O[C@H](COP(=O)(O)OP(=O)(O)OC[C@H]3O[C@@H](n4cnc5c(N)ncnc54)[C@H](OP(=O)(O)O)[C@@H]3O)[C@@H](O)[C@H]2O)C=CC1 [NADPH] | – | – | 22.6 ± 3.3 µM
